Assay results published in ChEMBL document CHEMBL1671707, “Mycobacterium tuberculosis dihydrofolate reductase is not a target relevant to the antitubercular activity of isoniazid” (Antimicrob Agents Chemother, 2010).
In brackets after ≈: the same amount, converted by molar mass. Activity calls are given as the source filed them. The calls are words filed in the database; no cut-off is given here.

How the values were obtained:
[1] = test system: Mycolicibacterium smegmatis; experiment: Antimicrobial activity against Mycobacterium smegmatis MC2 4517 by broth microdilution method; format: functional
[2] = test system: Mycolicibacterium smegmatis; experiment: Ratio of MIC for Mycobacterium smegmatis overexpressing dfrA gene to MIC for wild-type Mycobacterium smegmatis; format: functional
[3] = test system: Mycolicibacterium smegmatis; experiment: Antimicrobial activity against Mycobacterium smegmatis MC2 5072 overexpressing dhfr gene assessed as growth inhibition at 10 ug/ml; format: functional, organism-based
[4] = test system: Mycolicibacterium smegmatis; experiment: Antimicrobial activity against Mycobacterium smegmatis MC2 5071 overexpressing InhA gene assessed as growth inhibition at 10 ug/ml; format: functional, organism-based
[5] = test system: Mycolicibacterium smegmatis; experiment: Antimicrobial activity against Mycobacterium smegmatis MC2 5072 overexpressing dhfr gene assessed as growth inhibition at 120 ug/ml; format: functional, organism-based
[6] = test system: Mycolicibacterium smegmatis; experiment: Antimicrobial activity against Mycobacterium smegmatis MC2 5071 overexpressing InhA gene assessed as growth inhibition at 120 ug/ml; format: functional, organism-based
[7] = test system: Mycolicibacterium smegmatis; experiment: Antimicrobial activity against Mycobacterium smegmatis MC2 5069 assessed as growth inhibition at 50 ug/ml; format: functional, organism-based
[8] = test system: Mycolicibacterium smegmatis; experiment: Antimicrobial activity against Mycobacterium smegmatis MC2 5069 assessed as growth inhibition at 150 ug/ml; format: functional, organism-based
[9] = test system: Mycolicibacterium smegmatis; experiment: Antimicrobial activity against Mycobacterium smegmatis MC2 5071 overexpressing InhA gene assessed as growth inhibition at 50 ug/ml; format: functional, organism-based
[10] = test system: Mycolicibacterium smegmatis; experiment: Antimicrobial activity against Mycobacterium smegmatis MC2 5071 overexpressing InhA gene assessed as growth inhibition at 150 ug/ml; format: functional, organism-based
[11] = test system: Mycobacterium tuberculosis; experiment: Antimicrobial activity against wild-type Mycobacterium tuberculosis H37Rv by MTT assay; format: functional
Dihydrofolate reductase = target: T1, Dihydrofolate reductase (Mycobacterium tuberculosis, UniProt P9WNX1); experiment: Inhibition of Mycobacterium tuberculosis dihydrofolate reductase
T1 sequence (P9WNX1 whole entry): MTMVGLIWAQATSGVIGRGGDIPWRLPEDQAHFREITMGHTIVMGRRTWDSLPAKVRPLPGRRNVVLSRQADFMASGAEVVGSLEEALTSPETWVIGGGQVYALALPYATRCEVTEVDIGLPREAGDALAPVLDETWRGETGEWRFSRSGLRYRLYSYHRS

Escherichia coli = experiment: Antimicrobial activity against Escherichia coli expressing katG and dfrA gene; format: functional, organism-based

| SMILES | MIC [1] | Ratio [2] | Activity [3] | Activity [4] | Activity [5] | Activity [6] | Activity [7] | Activity [8] | Activity [9] | Activity [10] | MIC [11] | Ki (Dihydrofolate reductase) | Activity (Escherichia coli) |
| --- | --- | --- | --- | --- | --- | --- | --- | --- | --- | --- | --- | --- | --- |
| NNC(=O)c1ccncc1 [ISONIAZID] | 4.7 µg/mL (≈ 34.3 µM) | 2 | Active | inactive | Active | inactive | Active | Active | Active | Active | 0.06 µg/mL (≈ 0.438 µM) | 1 nM | inactive |
| CCc1cc(C(N)=S)ccn1 [ETHIONAMIDE] | 9.4 µg/mL (≈ 56.5 µM) |  |  |  |  |  |  |  |  |  |  |  |  |
